Assay results as given in US12263248B2, “Compounds and compositions for intracellular delivery of therapeutic agents” (ModernaTX, Inc., priority 2018, dated 2025).
Marks after values point to notes of the source that are not given here. One block for each compound: values may come before it.

Experiments:
[1] = Encapsulation efficiency of RNA (QUANT-IT RIBOGREEN RNA assay); assay type: physicochemical; conditions: for % Encapsulation: lipid nanoparticle, ±SD within one assay run (Table 37)
Procedure, shortened: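 RiboGreen fluorescence (ex ~480, em ~520 nm) compared between intact samples and Triton X-100-lysed samples after 15 min at 37 °C in TE buffer, pH 7.5. Percent free RNA is the blank-corrected intact/disrupted ratio.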

[2] = Particle size and polydispersity index of nanoparticle compositions (Zetasizer Nano ZS); assay type: physicochemical
Procedure, shortened: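 Measured in 1×PBS by Zetasizer Nano ZS.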

[3] = tested on: luciferase mRNA; experiment: Luciferase expression after subcutaneous administration to mice; assay type: in vivo, female CD-1 mice; conditions: for Novel lipid/MC3 expression ratio, s.c. Luc 0.5 mpk (AUC): relative to MC3; for Lipid/MC3 AUC ratio: luciferase; for AUC (luciferase expression): whole body BLI; for Novel lipid/MC3 ratio, s.c. Luc 6 hr.: relative to MC3, Table 3G
Procedure, shortened: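 Female CD-1 mice given luciferase mRNA in lipid nanoparticle formulations subcutaneously at 0.5 mpk. Expression read by whole-body bioluminescence imaging at 3, 6 and 24 h, with ex vivo liver, spleen and injection-site luminescence at 24 h.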

[4] = tested on: sC5b-9; experiment: Complement activation in vitro (sC5b-9 levels); assay type: cell-based; conditions: human cells contacted in vitro; for sC5b-9 levels relative to saline: in words
Protocol: Complement activation assists in the clearance of pathogens from an organism. As it is undesirable that a subject's body recognize a nanoparticle composition as a foreign invader, low complement system activation upon administration of such a composition is preferred. The complex sC5b-9 is a marker for the activation of the complement system. Thus, human cells were contacted in vitro with nanoparticle compositions according to Table 1A and were evaluated for sC5b-9 levels.

[5] = tested on: IP-10; experiment: Cytokine induction in rats after intravenous administration; assay type: in vivo, rat; conditions: for IP-10: rats, 2.0 mpk, 6 hours, hEPO nanoparticle compositions; for IP-10 induction: rat, 48 hours after administration
Protocol: The expression of hEPO and cytokine induction in rats intravenously administered a nanoparticle composition at a dose of 2.0 mpk was measured at 6 h.
Table 19A summarizes the hEPO expression, IP-10 induction, liver and spleen levels, and alanine aminotransferase (ALT) and aspartate aminotransferase (AST) measured upon intravenous administration of formulations including Compounds 48, 49, and 50 to rat at 0.2 and 2 mpk and hEPO mRNA. hEPO concentrations were measured 6 hours after administration, while cytokine induction and liver and spleen levels were measured 48 hours after administration. hEPO and IP-10 concentrations are presented in pg/ml, while liver levels are provided in ng/g. ALT and AST levels are presented in international units.

[6] = Apparent (surface) pKa of the LNP formulation (TNS assay); assay type: physicochemical
Procedure, shortened: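 Fluorescence of TNS probe added to LNP samples (mRNA 0.04 mg/mL) was read across 21 buffers of pH about 3-12, triplicate per pH. The inflection point of the sigmoidal fluorescence-vs-pH curve, […], gives apparent pKa; method validated in 1× PBS and Tris/sucrose buffer.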

[7] = Lipid clearance: lipid level in mouse liver tissue (LC-MS/MS); assay type: in vivo; conditions: for % dose remaining Mouse liver tissue, 24 h: CD-1 mouse liver 24 h after 0.5 mg/kg bolus dose mRNA, n = 5 ± S.D.; for original dose remaining in liver tissue 24 hours post dose: mice, intravenous
[8] = Chemical stability of lipids in ethanol (lipid purity); assay type: physicochemical
Protocol: Ester linkages were previously reported to trigger metabolism by esterases in vivo. (See Fukami, T. et al. Drug Metab. Pharmacokinet. 2012, 27, 466-477, the content of which is incorporated by reference herein in its entirety). […] (See Maier M. A., Mol. Ther. 2013, 21, 1570-1578, the content of which is incorporated herein in its entirety) First, the chemical stability of the lipids was evaluated by measuring ethanol stability at room temperature and 37° C. (Table 39). […] LNPs formed with compound 138 were larger, with a surface pKa>7. […] Removal of one ester function (compound 136) afforded LNPs with improved physiochemical characteristics and lower LNP surface pKa.

[9] = tested on: hEPO mRNA; experiment: hEPO expression after intramuscular administration to mice; assay type: in vivo; conditions: for Lipid/MC3 6 h timepoint / Lipid/MC3 AUC: Table 3I, hEPO
Protocol: The expression of hEPO and cytokine induction in mice intravenously administered a nanoparticle composition at a dose of 0.5 mpk were measured at 3, 6, and 24 hours. […] The expression of hEPO in mice intramuscularly administered a nanoparticle composition from Table 1B at a dose of 0.01 mpk were measured at 3, 6, and 24 hours.
Blood collection and analysis for hEPO. Blood was collected from mice or rats via the tail vein and hEPO concentrations were determined using a hEPO ELISA assay.

[10] = Table 1C, compositions for subcutaneous administration
[11] = Table 1A, lipid:DSPC:cholesterol:PEG-DMG 50:10:38.5:1.5 mol %
[12] = lipid:DSPC:Chol:PEG-DMG (50:10:38.5:1.5), hEPO mRNA
[13] = lipid nanoparticle, ±SD within one assay run (Table 37)
[14] = Table 1D, for subcutaneous administration, # formulated with hEPO mRNA
[15] = Table 1B, formulated with hEPO mRNA
[16] = nanoparticle composition with hEPO mRNA (Table 30)

SMILES: CCCCCC/C=C\COC(=O)CCCCCCCN(CCO)CCCCCCCC(=O)OC(CCCCCCCC)CCCCCCCC [Compound 24, Heptadecan-9-yl (Z)-8_((2-hydroxyethyl) (8-(non-2-en-1-yloxy)-8-oxooctyl)amino)octanoate]
EE (%) ([1]; Table 1A): 97.16% | % EE [1, 10]: 90.5% | PDI ([2]; Table 1A): 0.13 | Size (nm) [2, 11]: 99.5 nm | PDI [2, 10]: 0.17 | Size (nm) [2, 10]: 88.5 nm | Novel lipid/MC3 expression ratio, s.c. Luc 0.5 mpk (AUC) ([3]; 0.5 mpk): (AUC: 5.21) | Lipid/MC3 AUC ratio ([3]; 0.5 mpk): 5.21 | AUC (luciferase expression) ([3]; 0.5 mpk): 8.9281E+10 (p/s) * h | Novel lipid/MC3 ratio, s.c. Luc 6 hr. [3]: 5.79 | Fold increase in sC5b-9 levels versus saline [4]: 0.81 | sC5b-9 levels relative to saline [4]: slightly decrease | IP-10 [5]: 323.5 pg/mL | pKa ([6]; Table 1A): 6.71

SMILES: CCCCCCCCC(CCC)OC(=O)CCCCCCCN(CCO)CCCCCCCC(=O)OC(CCCCCCCC)CCCCCCCC (stereo not drawn) [Compound 50, dodecan-4-yl 8-((8-(heptadecan-9-yloxy)-8-oxooctyl)(2-hydroxyethyl)amino)octanoate]
EE (%) ([1]; Table 1A): 97.33% | PDI ([2]; Table 1A): 0.100 | Size (nm) [2, 11]: 68.4 nm | IP-10 induction ([5]; 0.2 mpk): 20 pg/mL | IP-10 induction ([5]; 2 mpk): 1065 pg/mL | pKa ([6]; Table 1A): 6.42

SMILES: CCCCC/C=C\C/C=C\CCCCCCCCN(CCO)CCCCCCCC(=O)OC(CCCCCCCC)CCCCCCCC [Compound 6, Heptadecan-9-yl 8-((2-hydroxyethyl)((9Z,12Z)-octadeca-9,12-dien-1-yl)amino)octanoate]
EE (%) ([1]; Table 1A): 97.60% | % Encapsulation [1]: 97.6 ± 1.2% | EE [1, 12]: 97.84% | PDI ([2]; Table 1A): 0.066 | Size (nm) [2, 11]: 73.1 nm | PDI (Polydispersity index) [2, 13]: 0.07 ± 0.05 | PDI [2, 12]: 0.082 | % dose remaining Mouse liver tissue, 24 h [7]: 67 ± 9.8% | original dose remaining in liver tissue 24 hours post dose [7]: 67% | Lipid Purity ([8]; t = 0): 93.80% | Lipid Purity ([8]; t = 96 h, 25° C.): 93.21% | Lipid Purity ([8]; t = 96 h, 37° C.): 94.29% | Fold increase in sC5b-9 levels versus saline [4]: 1.39 | sC5b-9 levels relative to saline [4]: somewhat increase | pKa ([6]; Table 1A): 6.32 | pKa [6, 13]: 6.32 ± 0.05

EE (%) ([1]; Table 1A): 89.52% | % EE [1, 14]: 96.2% | PDI ([2]; Table 1A): 0.14 | Size (nm) [2, 11]: 88 nm | PDI [2, 14]: 0.09 | Size (nm) [2, 14]: 74.0 nm | IP-10 induction ([5]; 0.2 mpk): 66 pg/mL | IP-10 induction ([5]; 2 mpk): 932 pg/mL | pKa ([6]; Table 1A): 6.52
SMILES: CCCCCCCCC(CC)OC(=O)CCCCCCCN(CCO)CCCCCCCC(=O)OC(CCCCCCCC)CCCCCCCC (stereo not drawn) [Compound 49, heptadecan-9-yl 8-((2-hydroxyethyl)(8-oxo-8-(undecan-3-yloxy)octyl)amino)octanoate]
Lipid/MC3 6 h timepoint [9]: 11.0 | Lipid/MC3 AUC [9]: 9.9

SMILES: CCCCCCCCCOC(=O)CCCCCCCN(CCO)CCCCCCCOC(=O)C(CCCCCCCC)CCCCCCCC [Compound 30, 7-((2-Hydroxyethyl)(8-(nonyloxy)-8-oxooctyl)amino)heptyl 2-octyldecanoate]
EE (%) ([1]; Table 1A): 95.69% | EE (%) [1, 15]: 96.32% | % EE [1, 10]: 93.0% | % EE [1, 14]: 93.1% | PDI ([2]; Table 1A): 0.15 | Size (nm) [2, 11]: 59.4 nm | PDI [2, 15]: 0.13 | Size (nm) [2, 15]: 76.3 nm | PDI [2, 10]: 0.12 | Size (nm) [2, 10]: 81.7 nm | PDI [2, 14]: 0.11 | Size (nm) [2, 14]: 89.8 nm | Novel lipid/MC3 expression ratio, s.c. Luc 0.5 mpk (AUC) ([3]; 0.5 mpk): (AUC: 6.38) | Lipid/MC3 AUC ratio ([3]; 0.5 mpk): 6.38 | AUC (luciferase expression) ([3]; 0.5 mpk): 1.0932E+11 (p/s) * h | Novel lipid/MC3 ratio, s.c. Luc 6 hr. [3]: 6.53 | factor by which MC3 is outperformed ([3]; female CD-1 mice, 0.5 mpk): 6.5 | Fold increase in sC5b-9 levels versus saline [4]: 0.94 | sC5b-9 levels relative to saline [4]: slightly decrease | IP-10 [5]: 214.5 pg/mL | pKa ([6]; Table 1A): 6.75 | Apparent pKa ([6]; Table 3G): 6.75 | Fold increase in hEPO concentration relative to MC3 ([9]; mice, 0.01 mpk, 6 hr time point): 9.2 | Novel lipid/MC3 ratio, 6 hr. timepoint, i.m. hEPO ([9]; relative to MC3, Table 3G): 9.2

SMILES: CCCCC/C=C\C/C=C\CCCCCCCCN(CCO)CCCCCCCC(=O)OCCCCCCCCC [Compound 136, Nonyl 8-((2-hydroxyethyl)((9Z,12Z)-octadeca-9,12-dien-1-yl)amino)octanoate]
EE (%) ([1]; Table 1A): 90.9% | % Encapsulation [1]: 90.9 ± 0.9% | PDI ([2]; Table 1A): 0.5 | Size (nm) [2, 11]: 140.4 nm | PDI (Polydispersity index) [2, 13]: 0.11 ± 0.05 | % dose remaining Mouse liver tissue, 24 h [7]: 0% | Lipid Purity ([8]; t = 0): 91.81% | Lipid Purity ([8]; t = 96 h, 25° C.): 93.17% | Lipid Purity ([8]; t = 96 h, 37° C.): 93.86% | Fold increase in sC5b-9 levels versus saline [4]: 0.69 | pKa ([6]; Table 1A): 6.95 | pKa [6, 13]: 6.95 ± 0.13

SMILES: CCCCCCCCCN(CCO)CCCCCCCC(=O)OC(CCCCCCCC)CCCCCCCC [Compound 3, Heptadecan-9-yl 8-((2-hydroxyethyl)(nonyl)amino)octanoate]
EE (%) ([1]; Table 1A): 92.25% | PDI ([2]; Table 1A): 0.20 | Size (nm) [2, 11]: 97.5 nm | IP-10 [5]: 542 pg/mL | pKa ([6]; Table 1A): 6.72 | pKa ([6]; Table 6): 6.72

SMILES: CCCCCCCCC(CCCCCCCC)OC(=O)CCCCCCCN(CCO)CCCCCCCC(=O)OC(CCCCCCCC)CCCCCCCC [Compound 29, Di(heptadecan-9-yl) 8,8′-((2-hydroxyethyl)azanediyl)dioctanoate]
EE (%) ([1]; Table 1A): 96.99% | % Encapsulation [1]: 97.0 ± 0.6% | PDI ([2]; Table 1A): 0.11 | Size (nm) [2, 11]: 66.8 nm | PDI (Polydispersity index) [2, 13]: 0.11 ± 0.03 | Size [2, 13]: 66.8 ± 1.1 nm | % dose remaining Mouse liver tissue, 24 h [7]: 68 ± 9.2% | original dose remaining in liver tissue 24 hours post dose [7]: 68% | Lipid Purity ([8]; t = 0): 97.017% | Lipid Purity ([8]; t = 96 h, 25° C.): 97.67% | Lipid Purity ([8]; t = 96 h, 37° C.): 98.10% | Fold increase in sC5b-9 levels versus saline [4]: 0.93 | sC5b-9 levels relative to saline [4]: slightly decrease | surface pKa ([6]; LNP, Example 26): 6.00 | pKa ([6]; Table 1A): 6.00 | pKa ([6]; Table 6): 6.00 | pKa [6, 13]: 6.00 ± 0.24

SMILES: CCCCCCCCC(C)OC(=O)CCCCCCCN(CCO)CCCCCCCC(=O)OC(CCCCCCCC)CCCCCCCC (stereo not drawn) [Compound 48, decan-2-yl 8-((8-(heptadecan-9-yloxy)-8-oxooctyl)(2-hydroxyethyl)amino)octanoate]
EE (%) ([1]; Table 1A): 96.55% | % EE [1, 14]: 96.2% | EE [1, 16]: 91.92% | PDI ([2]; Table 1A): 0.092 | Size (nm) [2, 11]: 82.3 nm | PDI [2, 14]: 0.09 | Size (nm) [2, 14]: 79.8 nm | PDI [2, 16]: 0.176 | Size ([2]; nanoparticle composition with hEPO mRNA, standard MC3 formulation (Table 30)): 70.6 nm | IP-10 induction ([5]; 0.2 mpk): 134 pg/mL | IP-10 induction ([5]; 2 mpk): 970 pg/mL | pKa ([6]; Table 1A): 6.68 | Lipid/MC3 6 h timepoint [9]: 8.2 | Lipid/MC3 AUC [9]: 7.5
